# What was measured:
# Assay type in all cases: biochemical
# tau peptide R3 [1] = molecular target: T1, tau peptide R3 (Homo sapiens, UniProt P10636); assay: ThS assay, heparin-induced R3 aggregation (kinetics and dose-response); settings: for IC50: 3 h at 37 °C, ThS fluorescence; for inhibition of R3 assembly (ThS kinetics): 5, 10 and 40 μM, 15 μM R3, heparin
# T1 construct: R3 (^306VQIVYK PVDLSK VTSKCG SLGNIH HKPGGG Q^336) and rabbit anti-tau antibody were purchased from MuJin; purchased MuJin
# Protocol: The inhibition effect of 4GA–2GA on R3 aggregation was explored by thioflavin S (ThS) assay ([24]). In general, the kinetics of R3 aggregation in the absence or the presence of 4GA, 2GA was assessed by measuring the emission intensity of ThS at 500 nm, which reflects the amount of R3 aggregates. As the control experiments, the aggregation kinetics of 4ME and GA were also carried out. While induced by heparin, R3 aggregates rapidly at 37 °C, and the fluorescence of ThS reaches a maximum after an average time of 200 s (Fig. 4A). Based on the aforementioned conditions, the inhibitory ability of our synthetic compounds at three different concentrations (5, 10, and 40 μM) was tested.
# Next, the dose–response inhibitory effects of our synthetic compounds on R3 aggregation were investigated. The detailed experimental operation was descripted in ESI. […] The apparent values of IC50 were calculated according to the dose−response curve.
# Tau peptide R3 was adjusted to a concentration of 15 μM using 50 mM Tris−HCl buffer (pH 7.4), ThS (final concentration of 10 μM), and different amounts of 4GA, 2GA, 4ME, and GA (final concentration of 0, 5, 10, and 40 μM) as the aggregation inhibitor were added in1to the reaction mixture. Aggregation was induced by adding heparin to the solution (final concentration of 3.8 μM); the kinetics of each sample was immediately monitored by a fluorescence spectrophotometer with a 10-mm quartz cell at 440/500 nm (excitation/emission). A circulating water bath was necessary to maintain the temperature at 37 °C.
# Tau peptide R3 was adjusted to a concentration of 15 μM using 50 mM Tris–HCl buffer (pH 7.4). Different amounts of 4GA, 2GA, 4ME, and GA (final concentration of 0, 1, 2, 4, 6, 10, 15, 20, 30, 40, 60, or 80 μM) as the aggregation inhibitors were added into the reaction mixture. Aggregation was induced by adding heparin to the solution (final concentration of 3.8 μM), After 3 h incubation at 37°C, ThS (final concentration of 10 μM) was added, and the fluorescence intensity at 440/500 nm (excitation/emission) was recorded on Hitachi F-7000 with a 10-mm quartz cell. The dose−response inhibitory effects of R3 aggregation were expressed by the aggregation percentage, which was calculated according to the following (Formula 4.3):(4.3) aggregation%=F-F0/Ft-F0×100
# where F0 = fluorescence intensity of R3 monomer, Ft = fluorescence intensity of R3 aggregate, and F = fluorescence intensity of R3 aggregate in the presence of inhibitors. The IC50 values were also calculated according to the dose−response inhibitory effects.
# Tau peptide R3 was adjusted to a concentration of 15 μM using Tris−HCl buffer (pH 7.4), and the synthetic compounds (4GA, 2GA, together with 4ME, GA as the comparison) at different concentrations, as aggregation inhibitor, were added into the reaction mixture separately. Aggregation was induced by heparin, and incubated at 37 °C for 3 h. By introducing fluorescence probe ThS, the dose−response inhibitory effects on R3 aggregation were recorded, according to normalized ThS fluorescence intensity (excitation: 440 nm, emission: 500 nm).
# Figure S14. Inhibitory effects of N-substituted Azacrown on heparin-induced R3 aggregation, exermined by ThS fluorescence: 15 μM R3 and 3.8 μM heparin with cyclen, 1ME, 2ME, 3ME, and 4ME (80 μM) was incubated respectively at 37°C for 3h. 10 μM ThS was added to each of the solution, Spectra of ThS fluorescence were recorded at Ex440 nm.
# tau peptide R3 [2] = molecular target: T1, tau peptide R3; assay: ThS assay, Cu2+-promoted heparin-induced R3 aggregation; settings: R3 15 μM, Cu2+ 3.8 μM, compound 10 μM, heparin 3.8 μM, 3 h
# Description: Metal ions, especially Cu^2+, are believed to be highly compatible with cysteine residues of tau peptide as a coordination center ([26]). Accompanied by the formation of intermolecular S–Cu–S bridging coordination bond, or intermolecular disulfide bond, these metal ions have been proven to promote tau aggregation ([27]). After confirming that 4GA and 2GA can effectively remove copper ions through coordination, we further explore their effects on R3 aggregation under the promotion of Cu^2+. […] Heparin was used to initiate the aggregation ([15]). […] As a comparison, the effects of the precursor compounds: 4ME, 3ME, 2ME, and 1ME, on Cu^2+-promoted R3 aggregation were also examined (Fig. S15).
# Figure 5 Kinetic curves and TEM image of R3 aggregation with 4GA or 2GA.A, kinetic curves of the R3 (15 μM) aggregation monitored by ThS fluorescence assay in different conditions. B, ThS fluorescence intensity of R3 (15 μM) incubated for 3 h in different conditions. C, TEM image of R3 fibrils in different conditions. Negatively stained with uranyl acetate. Scale bar represents 200 nm. Final concentrations of R3, Cu^2+, and inhibitors are 15, 3.8, and 10 μM, respectively. All aggregations were initiated by heparin (3.8 μM). 2GA, (4,10-dimethyl-1,4,7,10-tetraazacyclododecane-1,7-diyl)bis((3,4,5-trihydroxyphenyl)methanone); 4GA, (1,4,7,10-tetraazacyclododecane-1,4,7,10-tetrayl)tetrakis((3,4,5-trihydroxyphenyl)methanone); TEM, transmission electron microscopy; ThS, thioflavin S.
# The promotion of Cu^2+ on R3 aggregation was also inspected, similar to the aforementioned operation, unless that 3.8 μM Cu^2+ was also included, and using 50 mM Hepes (pH 7.4) as the buffer solution.
# Fig. S15 ThS fluorescence intensity of R3 (15 µM) incubated for 3 h. Final concentrations of R3, Cu^2+, and compounds are 15, 3.8 and 10 µM, respectively. All aggregations were initiated by heparin (3.8 µM).
# [3] = tested on: ROS generated by R3 + Cu^2+; assay: ROS in solution, DCFH fluorescent probe
# Description: In this experiment, the fluorescent probe, 2′,7′-dichlorodihydrofluorescein (DCFH), was used to detect the formation of ROS in solution.
# Figure 7 The scavenge ability of 4GA and 2GA on ROS.A, time-dependent experiment for monitoring ROS level in solution at different conditions, using the fluorescent probe 2′,7′-dichlorodihydrofluorescein (DCFH). B, ROS levels in SK-N-SH cells treated with different conditions detected by the fluorescent probe of DCFH in flow cytometry. The data were reported as the mean ± SD, n = 3. Statistical analysis was performed using a one-way ANOVA test, ∗p < 0.05, ∗∗p < 0.01, and ∗∗∗p < 0.001 (n = 3). C, confocal laser scanning microscopy (CLSM) analysis of the intracellular ROS level stained with DCFH. Scale bar represents 12.5 μm. 2GA, (4,10-dimethyl-1,4,7,10-tetraazacyclododecane-1,7-diyl)bis((3,4,5-trihydroxyphenyl)methanone); 4GA, (1,4,7,10-tetraazacyclododecane-1,4,7,10-tetrayl)tetrakis((3,4,5-trihydroxyphenyl)methanone); ROS, reactive oxygen species.
# T1 sequence (P10636 623-653 limits assumed): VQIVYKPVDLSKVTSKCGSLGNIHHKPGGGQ
compound,measurement,setting,value
"CN1CCN(C)CCN(C)CCN(C)CC1 [4ME, 1,4,7,10-tetramethyl-1,4,7,10-tetraazacyclododecane, reference compound]",effect on heparin-induced R3 aggregation (ThS fluorescence at 500 nm),"tau peptide R3 [1]; 80 μM compound, 15 μM R3, 3.8 μM heparin, 37 °C, 3 h",did not hinder the aggregation of R3 peptides
same,ThS fluorescence intensity of R3 aggregation in the presence of Cu2+,tau peptide R3 [2],only to a level close to the case of R3 aggregation in the absence of Cu^2+
"O=C(O)c1cc(O)c(O)c(O)c1 [GA, gallic acid, reference compound]",IC50,"tau peptide R3 [1]; 15 μM R3, 3.8 μM heparin",> 80 µM
same,DCFH fluorescence (ROS) in R3 + Cu2+ solution,[3],could also quench the DCFH fluorescence
"CN1CCN(C(=O)c2cc(O)c(O)c(O)c2)CCN(C)CCN(C(=O)c2cc(O)c(O)c(O)c2)CC1 [2GA, (4,10-dimethyl-1,4,7,10-tetraazacyclododecane-1,7-diyl)bis((3,4,5-trihydroxyphenyl)methanone)]",IC50,"tau peptide R3 [1]; 15 μM R3, 3.8 μM heparin",5.5 µM
same,inhibition of R3 assembly (ThS kinetics),tau peptide R3 [1]; 37 °C,strongly inhibited R3 assembly
same,ThS fluorescence intensity of R3 aggregation in the presence of Cu2+,tau peptide R3 [2],"dropped dramatically, to a level lower than the case of R3 aggregation in the absence of Cu^2+"
same,DCFH fluorescence (ROS) in R3 + Cu2+ solution,[3],returning to the level observed in the R3 solution without Cu^2+
"O=C(c1cc(O)c(O)c(O)c1)N1CCN(C(=O)c2cc(O)c(O)c(O)c2)CCN(C(=O)c2cc(O)c(O)c(O)c2)CCN(C(=O)c2cc(O)c(O)c(O)c2)CC1 [4GA, (1,4,7,10-tetraazacyclododecane-1,4,7,10-tetrayl)tetrakis((3,4,5-trihydroxyphenyl)methanone)]",IC50,"tau peptide R3 [1]; 15 μM R3, 3.8 μM heparin",3.8 µM
same,inhibition of R3 assembly (ThS kinetics),tau peptide R3 [1]; 37 °C,strongly inhibited R3 assembly
same,ThS fluorescence intensity of R3 aggregation in the presence of Cu2+,tau peptide R3 [2],"dropped dramatically, to a level lower than the case of R3 aggregation in the absence of Cu^2+"
same,DCFH fluorescence (ROS) in R3 + Cu2+ solution,[3],returning to the level observed in the R3 solution without Cu^2+
